Assay results from patent US5811465A, “Composition, device, and method for electrotransport agent delivery” (priority 1997, dated 1998).
Like-named read-outs stand apart in the source and are kept apart here.

Tests used:
[1] = for Normalized Ketoprofen Flux (after 5 hrs): control = 1.00, 100 μA/cm^2, about 32° C.
Protocol: (§1) Human cadaver skin was prepared by first removing about 1 mm thick skin samples with an electric dermatome in the form of strips. The skin strips were placed in polyethylene bags, sealed and placed in a refrigerator at about 4° C. for temporary storage. Prior to use in the electrotransport cell, the skin strips were placed in one-liter beakers containing water at 60° C. for about 90 seconds with gentle stirring. Then, the skin strips were removed and placed onto the absorbent side of a piece of BENCHKOTE™ fabric with the dermis side down. Using flat tipped tweezers to retain the dermis, the epidermis was removed from each strip with a round-tip spatula. Each epidermis, stratum comeum side up, was transferred to a PYREX™ glass tray which was filled with water. Each floating epidermis was stretched essentially flat. After removal from the water 2.22 cm (7/8 in.) diameter disks of each epidermis were punched out of areas having negligible surface damage. The disks were stored at 4° C. in a sealed container with water droplets to maintain their moisture.
(§2) The human cadaver epidermis disks were mounted between compartments 44 and 46 of the electrotransport permeation cell shown in FIG. 2. The cell was comprised of a polycarbonate support structure 52, including O-ring seals 54, and the assembly was held together with stainless steel bolt and nut 56. The human skin disk 42 separated the anodic compartment 44 and the cathodic compartment 46. A silver anode 48 was placed adjacent to the anodic compartment 44, and a silver chloride cathode 50 was placed adjacent to the cathodic compartment 46. The area of the human skin disk 42 exposed for transport was about 1.26 cm^2 and the volume of each of compartments 44 and 46 was about 2 ml. The electrodes 48, 50 were electrically connected to a galvanostat (not shown in FIG. 2), which can be set to apply the voltage necessary to achieve a constant predetermined level of electric current. The galvanostat was set to apply a current of 126 μA, ie, 100 μA/cm^2 across electrodes 48, 50 throughout each test.
(§3) Dulbecco's phosphate buffered saline (about 0.15M NaCl with minor amounts of other ions, pH 7.0) was placed in the anodic receptor compartment 44. The skin resistance was calculated from the voltages applied by the galvanostat according to Ohm's law, ie, Rskin =ΔV/i, where ΔV is the potential applied by the galvanostat, and i is the applied current, 126 microamps.
(§4) The system was maintained at about 32° C. by a Haake Model D1 heating block/water bath. The cell voltage was monitored over the entire procedure, and then averaged. The skin resistance was calculated from Ohm's law as described above using the measured ΔV.
(§5) The samples were automatically taken from the receptor compartment every one to two hours, except for overnight experimentation, with an Isco Model 2230 autosampler and a metering pump. […] Each run was conduced in triplicate, including the control, to minimize error. All cells were set up with tissue from the same cadaver. The selected permeation enhancer was placed in the donor compartment, while the control cell's donor compartment contained no enhancer.
(§6) Thus, the flux control and the skin conductivity control were each assigned a value of 1, and the flux/conductivity values obtained after addition of each permeation enhancer to the donor solution are normalized to the control.

[2] = Electrical conductivity of human cadaver skin during electrotransport with permeation enhancer (Example 1); conditions: for Normalized Skin Conductivity (after 5 hrs): control = 1.00, 100 μA/cm^2, about 32° C.; for enhancement (skin conductivity), in words: comparison among tested enhancers, with/without ethanol
Protocol: as §1, §2, §3, §4, §5, §6

[3] = Water solubility of permeation enhancer; format: physicochemical; conditions: at about 20° C.
[4] = 25 mM enhancer in 20% Ethanol, pH 7.05
[5] = 25 mM enhancer, without ethanol, pH 6.90
[6] = 1,2-dodecane diol with vs without ethanol
[7] = 10 mM enhancer in 20% Ethanol, pH 7.30 (ODAA), 7.00 (A3)
[8] = 10 mM enhancer, without ethanol, pH 7.20 (DMDDA), 6.90 (DDPDCl)

CCCCCCCCCCC(O)CO (stereo not shown) [1,2-Dodecanediol, 1,2-dodecane diol]
Normalized Ketoprofen Flux (after 5 hrs) [1, 4]: 1.95
Normalized Ketoprofen Flux (after 5 hrs) [1, 5]: 1.99
effect of ethanol as solvent on ketoprofen flux [1, 6]: did not affect ketoprofen flux
ketoprofen flux enhanced, relative to control value (in words) ([1]; addition of 1,2-dodecane diol): about double
enhancement (flux), in words ([1]; ketoprofen flux, comparison among tested enhancers, with/without ethanol): effective for enhancing both flux and skin conductivity in the presence and in the absence of ethanol
Normalized Skin Conductivity (after 5 hrs) [2, 4]: 6.81
Normalized Skin Conductivity (after 5 hrs) [2, 5]: 5.69
increase in skin conductivity by presence of ethanol [2, 6]: about 20%
enhancement of skin conductivity relative to the other permeation enhancers ([2]; alone without ethanol): more than double
enhancement (skin conductivity), in words [2]: effective for enhancing both flux and skin conductivity in the presence and in the absence of ethanol
water solubility [3]: greater than 25 mM

CCCCCCCCCCCC(=O)OCCCn1ccn(C)c1=O [A3, 1-methyl-4-imidazoline-2-one-3-propylenedodecanoate]
Normalized Ketoprofen Flux (after 5 hrs) [1, 7]: 1.76
Normalized Skin Conductivity (after 5 hrs) [2, 7]: 5.93

CCCCCCCCCCCCN(C)C [DMDDA, N,N-dimethyl-dodecylamine]
Normalized Ketoprofen Flux (after 5 hrs) [1, 8]: 1.37
Normalized Skin Conductivity (after 5 hrs) [2, 8]: 2.71

CCCCCCCCCCCCO [Dodecanol, dodecanol]
enhancement (flux), in words [1]: greatest enhancement
Normalized Skin Conductivity (after 5 hrs) [2, 4]: 34.7
enhancement (skin conductivity), in words [2]: greatest enhancement

octyl-N,N-dimethyl-dodecylamino acetate [ODAA]
Normalized Skin Conductivity (after 5 hrs) [2, 7]: 4.61
